Assay results from patent US20240360179A1, “STAPLED PEPTIDES AND METHODS THEREOF” (FOG PHARMACEUTICALS, INC., priority 2021, published 2024).

Target: T1, full-length B-Catenin (Uniprot ID P35222) (Homo sapiens, UniProt P35222)
T1 construct: 10 nM full-length B-Catenin (Uniprot ID P35222)
T1 sequence (P35222 1-781): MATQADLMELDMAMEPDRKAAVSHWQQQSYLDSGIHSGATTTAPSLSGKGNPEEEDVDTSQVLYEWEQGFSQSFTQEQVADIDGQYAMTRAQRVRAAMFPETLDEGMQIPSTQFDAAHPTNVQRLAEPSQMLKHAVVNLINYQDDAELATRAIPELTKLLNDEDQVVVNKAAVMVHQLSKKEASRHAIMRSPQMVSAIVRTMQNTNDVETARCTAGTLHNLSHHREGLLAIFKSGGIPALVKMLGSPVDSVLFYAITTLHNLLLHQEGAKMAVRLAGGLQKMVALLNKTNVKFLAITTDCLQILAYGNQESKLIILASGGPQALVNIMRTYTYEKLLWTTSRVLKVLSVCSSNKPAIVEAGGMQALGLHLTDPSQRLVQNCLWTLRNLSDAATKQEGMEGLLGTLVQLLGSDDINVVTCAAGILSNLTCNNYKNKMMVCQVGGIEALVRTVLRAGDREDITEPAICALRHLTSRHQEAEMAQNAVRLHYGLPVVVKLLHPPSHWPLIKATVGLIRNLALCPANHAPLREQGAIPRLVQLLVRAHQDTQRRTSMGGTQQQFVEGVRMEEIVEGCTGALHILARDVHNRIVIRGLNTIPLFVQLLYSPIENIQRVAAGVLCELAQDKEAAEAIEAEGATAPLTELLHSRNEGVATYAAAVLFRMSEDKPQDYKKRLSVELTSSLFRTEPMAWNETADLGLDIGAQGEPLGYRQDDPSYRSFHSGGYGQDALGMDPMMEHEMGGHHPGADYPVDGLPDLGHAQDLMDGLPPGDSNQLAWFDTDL
Test: not given
Format: binding
Conditions: competition fluorescence polarization; read-out: beta-Catenin FP IC50

Substance | IC50 [µM]
4pentenyl-MePro-Asp-B5-Ala-Asp-3COOHF-Ala-Ala-Phe-PyrS2-Lys*3-3Thi-BztA-Ala-GlnR*3-NH2 [I-932] | > 1
4pentenyl-MePro-Asp-B5-Ala-Asp-3COOHF-Ala-Ala-Phe-PyrS2-Lys*3-3Thi-BztA-Ala-GlnR*3-NH2 [I-993] | 0.75 to 1
4pentenyl-ThioPro-Asp-B5-Ala-Asp-3COOHF-Ala-Ala-Phe-PyrS2-Lys*3-3Thi-BztA-Ala-GlnR*3-NH2 [I-933] | > 1

Same assay, conditions: read-out: beta-Catenin FP IC50

Substance | IC50 [µM]
Ac-PL3-Asp-Cha-B5-Asp-3COOHF-Ala-Ala-Phe-Lys*3-PyrS2-2F3MeF-BztA-GlnR*3-Ala-NH2 [I-98] | < 0.05
Ac-PL3-Asp-Leu-B5-Asp-3COOHF-Ala-Ala-Phe-GlnR*3-PyrS2-3Thi-BztA-Lys*3-NH2 [I-16] | < 0.05
Ac-PL3-Asp-Leu-B5-Asp-3COOHF-Ala-Ala-Phe-Lys*3-PyrS2-3Thi-BztA-GlnR*3-NH2 [I-12] | < 0.05
Ac-PL3-Asp-Leu-B5-Asp-3COOHF-Ala-Ala-Phe-dLys*3-PyrS2-3Thi-BztA-GlnR*3-NH2 [I-10] | < 0.05
Ac-PL3-Asp-Npg-B5-Asp-3COOHF-Acp-Ala-Phe-Lys*3-PyrS2-3Thi-BztA-GlnR*3-Ala-NH2 [I-385] | < 0.05
Ac-PL3-Asp-Npg-B5-Asp-3COOHF-Aib-Ala-Phe-Lys*3-PyrS2-3Thi-BztA-GlnR*3-Leu-Glu-Ala-NH2 [I-495] | < 0.05
Ac-PL3-Asp-Npg-B5-Asp-3COOHF-Aib-Ala-Phe-Lys*3-PyrS2-3Thi-BztA-GlnR*3-Leu-Ser-Ala-NH2 [I-497] | < 0.05
Ac-PL3-Asp-Npg-B5-Asp-3COOHF-Aib-Ala-Phe-Lys*3-PyrS2-3Thi-BztA-GlnR*3-Leu-Thr-Ala-NH2 [I-499] | < 0.05
Ac-PL3-Asp-Npg-B5-Asp-3COOHF-Aib-Ala-Phe-Lys*3-PyrS2-3Thi-BztA-GlnR*3-Leu-aThr-Ala-NH2 [I-501] | < 0.05
Ac-PL3-Asp-Npg-B5-Asp-3COOHF-Aib-Ala-Phe-Lys*3-PyrS2-3Thi-BztA-GlnR*3-Thr-Aib-NH2 [I-412] | < 0.05
Ac-PL3-Asp-Npg-B5-Asp-3COOHF-Aib-Ala-Phe-Lys*3-PyrS2-3Thi-BztA-GlnR*3-Val-Aib-NH2 [I-408] | < 0.05
Ac-PL3-Asp-Npg-B5-Asp-3COOHF-Aib-Ala-Phe-Lys*3-PyrS2-3Thi-BztA-GlnR*3-dAla-Ser-NH2 [I-461] | < 0.05
Ac-PL3-Asp-Npg-B5-Asp-3COOHF-Aib-Ala-Phe-Lys*3-PyrS2-3Thi-BztA-GlnR*3-dLeu-Ser-Leu-NH2 [I-468] | < 0.05
Ac-PL3-Asp-Npg-B5-Asp-3COOHF-Aib-Ala-Phe-Lys*3-PyrS2-Phe-2NapA-GlnR*3-Ala-NH2 [I-484] | < 0.05
Ac-PL3-Asp-Npg-B5-Asp-3COOHF-Aib-Ala-Phe-Lys*3-PyrS2-Phe-BztA-GlnR*3-Ala-NH2 [I-280] | < 0.05
Ac-PL3-Asp-Npg-B5-Asp-3COOHF-Aib-Ala-Phe-Lys*3-PyrS2-nLeu-BztA-GlnR*3-Ala-NH2 [I-272] | < 0.05
Ac-PL3-Asp-Npg-B5-Asp-3COOHF-Aib-Ala-Phe-TriAzLys*3-PyrS2-Phe-BztA-sAbu*3-Ala-NH2 [I-420] | < 0.05
Ac-PL3-Asp-Npg-B5-Asp-3COOHF-Aib-Ala-nLeu-Lys*3-PyrS2-Phe-34ClF-GlnR*3-Ala-NH2 [I-480] | < 0.05
Ac-PL3-Asp-Npg-B5-Asp-3COOHF-Cha-Ala-Phe-Lys*3-PyrS2-2F3MeF-BztA-GlnR*3-Ala-NH2 [I-102] | < 0.05
Ac-PL3-Asp-Npg-B5-Asp-3COOHF-CyLeu-Ala-Phe-Lys*3-PyrS2-3Thi-BztA-GlnR*3-Ala-NH2 [I-383] | < 0.05
Ac-PL3-Asp-Npg-B5-Asp-3COOHF-DaMeS-Ala-Phe-Lys*3-PyrS2-3Thi-BztA-GlnR*3-Ala-NH2 [I-437] | < 0.05
Ac-PL3-Asp-Npg-B5-Asp-3COOHF-aMeDF-Ala-Phe-Lys*3-PyrS2-3Thi-BztA-GlnR*3-Ala-NH2 [I-457] | < 0.05

Same assay, conditions: read-out: beta-catenin TCF4 competition FP assay IC50

Substance | IC50 [µM]
Ac-PL3-Asp-Npg-B5-Asp-3COOHF-Aib-Ala-Phe-[oXyl]Cys-PyrS2-2F3MeF-BztA-Cys-Ala-NH2 [I-376] | 0.22
Ac-PL3-Asp-Npg-B5-Asp-3COOHF-Aib-Ala-Phe-[pXyl]Cys-PyrS2-2F3MeF-BztA-Cys-Ala-NH2 [I-377] | 0.093

Target: T2, TCF/LEF luciferase reporter in DLD1 cells (Homo sapiens, UniProt P35222)
T2 sequence (P35222 2-781): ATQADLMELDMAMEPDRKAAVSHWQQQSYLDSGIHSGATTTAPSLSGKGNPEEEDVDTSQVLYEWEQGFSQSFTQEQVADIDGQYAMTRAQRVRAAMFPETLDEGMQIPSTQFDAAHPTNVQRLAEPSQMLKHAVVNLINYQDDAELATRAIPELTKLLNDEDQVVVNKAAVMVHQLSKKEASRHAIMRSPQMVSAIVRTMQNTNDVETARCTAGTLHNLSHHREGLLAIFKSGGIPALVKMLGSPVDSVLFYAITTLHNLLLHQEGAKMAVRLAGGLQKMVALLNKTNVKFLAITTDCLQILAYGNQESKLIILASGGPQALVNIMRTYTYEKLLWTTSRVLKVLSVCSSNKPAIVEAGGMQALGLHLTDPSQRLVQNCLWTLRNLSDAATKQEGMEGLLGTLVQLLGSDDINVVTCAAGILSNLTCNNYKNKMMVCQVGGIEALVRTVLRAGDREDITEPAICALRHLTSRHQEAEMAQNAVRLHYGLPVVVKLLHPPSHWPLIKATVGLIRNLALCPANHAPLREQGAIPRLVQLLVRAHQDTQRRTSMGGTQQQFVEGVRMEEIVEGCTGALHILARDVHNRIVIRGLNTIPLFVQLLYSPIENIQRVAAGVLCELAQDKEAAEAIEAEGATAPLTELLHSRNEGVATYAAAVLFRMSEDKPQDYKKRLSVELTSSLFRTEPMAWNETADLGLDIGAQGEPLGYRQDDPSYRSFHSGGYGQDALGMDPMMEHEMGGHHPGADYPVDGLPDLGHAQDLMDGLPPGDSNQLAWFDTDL
Test: TCF reporter assay in DLD1 cells (4% or 20% FBS)
Format: cell-based
Conditions: read-out: DLD1 4% Abs IC50; DLD1 TCF reporter, 4% FBS

Substance | IC50 [µM]
Ac-PL3-Asn-Npg-B5-Asp-3COOHF-Aib-Ala-Phe-Lys*3-PyrS2-2F3MeF-BztA-GlnR*3-Leu-Ser-NH2 [I-144] | 1 to 5
Ac-PL3-Asn-Npg-B5-Asp-3COOHF-Ala-Ala-Phe-Lys*3-PyrS2-2F3MeF-BztA-GlnR*3-Leu-Ser-NH2 [I-142] | > 5

Tested on: COLO320DM cells
Test: COLO320DM proliferation assay (CellTiter-Glo)
Format: cell-based, human
Conditions: read-out: COLO320DM Proliferation Abs IC50
Method in brief: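 COLO320DM cells, 250 cells/well in RPMI-1640 with 4% FBS, attached 18-22 h, then exposed 96 h at 37 °C, 5% CO2 to 7-point 1/2 dilutions from 20 uM to 313 nM. Viability by CellTiter-Glo luminescence; IC50 derived from the dose curve.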

Substance | IC50 [µM]
Ac-PL3-Asp-Npg-B5-Asp-3COOHF-Aib-Ala-Phe-Lys*3-PyrS2-Phe-34ClF-GlnR*3-Pro-NH2 [I-872] | ≤ 10
Ac-PL3-Asp-Npg-B5-Asp-3COOHF-Aib-Ala-Phe-Lys*3-PyrS2-Phe-34MeF-GlnR*3-NH2 [I-1103] | ≤ 10
Ac-PL3-Asp-Npg-B5-Asp-3COOHF-Aib-Ala-Phe-Lys*3-PyrS2-[2PyAc]2NH2F-BztA-GlnR*3-Ala-NH2 [I-1740] | ≤ 10
Ac-PL3-Asp-Npg-B5-Asp-3COOHF-Aib-Ala-Phe-Lys*3-PyrS2-[2PyzCO]2NH2F-BztA-GlnR*3-Ala-NH2 [I-1755] | > 20
Ac-PL3-Asp-Npg-B5-Asp-3COOHF-Aib-Ala-Phe-Lys*3-PyrS2-[3PyPrpc]2NH2F-BztA-GlnR*3-Ala-NH2 [I-1742] | 10 to 20
Ac-PL3-Asp-Npg-B5-Asp-3COOHF-Aib-Ala-Phe-Lys*3-PyrS2-[4PyPrpc]2NH2F-BztA-GlnR*3-Ala-NH2 [I-1743] | 10 to 20
Ac-PL3-Asp-Npg-B5-Asp-3COOHF-Aib-Ala-Phe-Lys*3-PyrS2-[15PyraPy]2NH2F-BztA-GlnR*3-Ala-NH2 [I-1752] | ≤ 10
Ac-PL3-Asp-Npg-B5-Asp-3COOHF-Aib-Ala-Phe-Lys*3-PyrS2-[MorphAc]2NH2F-BztA-GlnR*3-Ala-NH2 [I-1753] | > 20
Ac-PL3-Asp-Npg-B5-Asp-3COOHF-Aib-Ala-Phe-Lys*3-PyrS2-[Nic]2NH2F-BztA-GlnR*3-Ala-NH2 [I-1754] | > 20
Ac-PL3-Asp-Npg-B5-Asp-3COOHF-Aib-Ala-Phe-Lys*3-PyrS2-hCbA-BztA-GlnR*3-Val-Glu-Ala-NH2 [I-1345] | ≤ 10
Ac-PL3-Asp-Npg-B5-Asp-3COOHF-Aib-Ala-Phe-Lys*3-PyrS2-hCha-34ClF-GlnR*3-Val-Glu-Ala-NH2 [I-1350] | ≤ 10
Ac-PL3-Asp-Npg-B5-Asp-3COOHF-Aib-Ala-Phe-Lys*3-PyrS2-hCha-BztA-GlnR*3-Val-Glu-Ala-NH2 [I-1347] | > 20
Ac-PL3-Asp-Npg-B5-Asp-3COOHF-Aib-Ala-Phe-Lys*3-PyrS2-hCypA-34ClF-GlnR*3-Val-Glu-Ala-NH2 [I-1349] | ≤ 10
Ac-PL3-Asp-Npg-B5-Asp-3COOHF-Aib-Ala-Phe-Lys*3-PyrS2-hCypA-BztA-GlnR*3-Val-Glu-Ala-NH2 [I-1346] | ≤ 10
Ac-PL3-Asp-Npg-B5-Asp-3COOHF-Aib-Ala-Phe-dDab*3-PyrS2-3Thi-BztA-GlnR*3-Ala-Ala-Ala-Ala-Ala-NH2 [I-790] | ≤ 10
Me2NAc-PL3-Asp-Npg-B5-Asp-3COOHF-Aib-Ala-Phe-Lys*3-PyrS2-3Thi-BztA-GlnR*3-Ala-NH2 [I-1078] | > 20
